The text below walks through data of patent EP0471841A1, “SULFONAMIDE DERIVATIVE AND PHARMACEUTICAL COMPOSITION CONTAINING THE SAME” (Asahi Kasei Kogyo Kabushiki Kaisha, priority 1990, dated 1991).

Counter-ions that a name gives are not always drawn.

Assay [1] deals with trachea. The assay can be described thus: Effect on trachea in vivo: inhibition of histamine-induced tracheal contraction (modified Konzett-Rössler method). The note with it: Cavia porcellus, iv, 0.05 h; compound 1 mg/kg through the femoral vein, histamine 20 µg/kg through the femoral vein 3 minutes later; anesthetized male guinea pigs; compounds used as hydrochloride; 3 animals per group; read-out: Inhibition of tracheal con-traction. From the text: Further, the inhibiting action of the compound of the present invention on the histamine-induced contraction of the trachea of a guinea pig was examined by in vivo experiment. As a result, the in vivo bronchodilation action was confirmed.
According to a modified method of Konzett-Rössler method [see J. Martinez et al, Bronchial Arterial Injections, vol. 33, 295, (1961); Masaaki Takai et al, Oyo Yakuri (Applied Pharmacology), vol. 17, p.345, (1979)], effect of the compounds of the present invention on trachea in vivo was examined. Of compounds 3, 4, 30, 31, 36, 38, 48, 54 and 55, which were used herein, compounds other than acid addition salts were individually subjected to testing in the form of a hydrochloride which was obtained in the same manner as described in Example 61. Urethane was intraperitoneally administered to male guinea pigs weighing 350 to 600 g (Hartley strain, Kuroda Junkei Dobutsu) in an amount of 1.5 g/kg of body weight to anesthetize the animals. Then, cannulae were inserted into the trachea and femoral vein of each animal under urethane anesthesia and fixed. The inserted tracheal cannula was connected to a respirator for small animal (model 1683, manufactured by Harvard Co., Ltd.) and a pneumotachometer (model MHF-1200, manufactured by Nihon Kohden Corp.) through a bottle containing water, the water surface of which was adjusted to a level which is 10 cm high from the bottom, and a respiratory volume was determined.
Each of the above-mentioned compounds of the present invention was administered to guinea pigs through the femoral vein in an amount of 1 mg/kg of body weight. After 3 minutes from the administration, histamine was administered to the same guinea pigs through the femoral vein in an amount of 20 µg/kg of body weight, to thereby induce contraction of trachea and the inhibition of the histamine-induced tracheal contraction by each of the above-described compounds of the present invention was determined. For comparison, the inhibition of histamine-induced tracheal contraction by each of aminophylline, comparative compound (1) and comparative compound (2) was determined in substantially the same manner as described above. As a solvent for each compound, physiological saline was used. The number of the guinea pigs tested in each group was 3.

For assay [2], the system named is tracheal specimens excised from guinea pigs. The assay can be described thus: Inhibitory effect on KCl-induced contraction of tracheal specimens excised from guinea pigs (Magnus tube). Format: cell-based. The note with it: Cavia porcellus; dose required for relaxing KCl-induced contraction to 50 %; final KCl concentration: 20 mM; 37 °C; compounds other than acid addition salts used as hydrochloride; 3 specimens per group; read-out: ED₅₀ Effect on KCl-induced contraction. Here is the method: (§1) The bronchial smooth muscle-relaxing action of the sulfonamide derivative of the present invention was evaluated by the effect on suppression of KCl-induced contraction and PGF2α-induced contraction of bronchial specimens excised from guinea pigs.
According to a method in which tracheal specimens excised from guinea pigs were used (Takagi and Ozawa, "Yakubutsugaku Jikken (Experiments in Pharmacology)", pp.100-102, 1960, published by Nanzando Japan; and Fujiwara and Shibata, "Yakurigaku Kiso Jikenho (Methods of Fundamental Experiments in Pharmacology)" pp.131-134, 1982, published by Kyourin, Japan), relaxing effect of sulfonamide derivatives of the present invention on bronchial smooth muscle was examined. Of compounds (1) to (69) shown herein, compounds other than acid addition salts were individually used in the form of a hydrochloride which was obtained by the same method as described in Example 61.
From male guinea pigs weighing 350 to 500 g (Hartley strain, Kuroda Junkei Dobutsu), tracheas were excised and each of the excised tracheal specimens was hung in 20 ml of a Magnus tube filled with Krebs-Henseleit solution under isotonic conditions and the solution temperature was kept at 37 °C. An aqueous KCl solution was dropwise added into the Magnus tube (final KCl concentration: 20 mM) to contract the tracheal specimen. After the KCl-induced contraction became stable, each of the compounds of the present invention was dissolved in distilled water or physiological saline, and the compound solution was cumulatively added into the Magnus tube. The relaxing effect of each of the compounds of the present invention on contracted tracheal specimens was evaluated and a dose-response curve was obtained.
A dose required for relaxing KCl-induced contraction to 50 %, i.e., ED₅₀ was calculated from the dose-response curve. For comparison, the same method as described above was repeated except that aminophylline was used, to thereby determine an ED₅₀. The number of tracheal specimens in each group was 3.

Assay [3] shares this test system. The assay can be described thus: Inhibitory effect on PGF2α-induced contraction of tracheal specimens excised from guinea pigs (Magnus tube). Type of assay: cell-based. As to conditions: Cavia porcellus, dose required for relaxing PGF2α-induced contraction to 50 %; PGF2α final concentration: 1 µm; compounds used as hydrochloride; 3 specimens per group; read-out: PGF2α-induced contraction ED50. Here is the method:
as §1
Tracheal specimens excised from male guinea pigs weighing 350 to 500 g (Hartley strain, Kuroda Junkei Dobutsu) were contracted in substantially the same manner as in Application Example 1 except that PGF2α (final concentration: 1 µm) was used instead of KCl. After the contraction of the tracheal specimens became stable, each of the compounds (hydrochloride) of the present invention was dissolved in distilled water or physiological saline, and the compound solution was cumulatively added into the Magnus tube in the same manner as in Application Example 1. The relaxing effect of each of the compounds of the present invention on the contracted specimens was evaluated and a dose-response curve was obtained. The dose required for relaxing PGF2α-induced contraction to 50 %, i.e., ED₅₀ was calculated form the dose-response curve. Of compounds 3, 4, 30, 31, 36, 38, 48, 54 and 55, which were imdividually used herein, compounds other than acid addition salts were used in the form of a hydrochloride which was obtained in the same manner as described in Example 61. For comparison, the same procedure as described above was repeated except that aminophylline, comparative compound (1) and comparative compound (2) were individually used instead of the compound of the present invention, to obtain an ED₅₀. The number of specimens in each group was 3.

In the case of `CCOc1ccc(S(=O)(=O)NCCN2CCCN(Cc3ccc4c(c3)OCO4)CC2)c2cccnc12` [(48), 1-(8-ethoxy-5-quinolinesulfonylaminoethyl)-4-(3,4-methylenedioxybenzyl)homopiperazine], the inhibition in vivo at 1 mg/kg in assay [1] turned out to be 33%. Also, the EC50 in assay [2] came to 37 µM; in assay [3] it was 82 µM.

On to `CCOc1ccc(S(=O)(=O)N2CCCNCC2)c2cccnc12` [(55), 1-(8-ethoxy-5-quinolinesulfonyl)homopiperazine], for which, in assay [1], the inhibition in vivo at 1 mg/kg turned out to be 23%. The values for the EC50 in assay [2] and in assay [3] were 45 µM and 71 µM, respectively.

With `O=S(=O)(NCCNCc1ccc2c(c1)OCO2)c1cccc2c(O)nccc12` [(4), N-[2-(3,4-methylenedioxybenzylamino)ethyl]-1-hydroxy-5-isoquinolinesulfonamide hydrochloride], in assay [1], the inhibition in vivo at 1 mg/kg worked out at 25%. In addition, the EC50 stood at 10 µM in assay [2] and 5 µM in assay [3].
